{"source": "patent US20080160108A1", "about": "“Method of treating muscular dystrophies with an inhibitor of histone deacetylase” (Centre National de la Recherche Scientifique- CNRS, a …, priority 2002, published 2008)", "key": {"utrophin [1]": {"system": "utrophin", "assay": "Utrophin in muscle of healthy OF1 mice injected i.p.", "type": "in vivo, mouse", "method": "OF1 mice were injected daily with i.p. and for 6 weeks with 100, 200 or 300 mg/kg/day either with arginine butyrate or with physiological serum. No utrophin was observed on the membrane in the muscle of the mice injected with the physiological serum used as control (“non-treated”). […] This augmentation is dosage-dependent. The induction of utrophin under the muscular membrane is significant probably on account of an additive effect of the arginine via the NO and of the butyrate via the activation of the transcription of the utrophin gene."}, "utrophin [2]": {"system": "utrophin", "assay": "Utrophin in muscle of mdx mice injected i.p., immunofluorescence and Western blot", "type": "in vivo, mouse", "conditions": "200 mg/kg/day i.p. daily for 6 weeks", "method": "Mdx mice were injected daily i.p. and for 6 weeks with 200 mg/kg/day either with butyrate or with L-arginine or with physiological serum. It is observed that the utrophin is poorly expressed in the muscle of the mdx mice injected with physiological serum used as control. […] It should be noted that the augmentation of utrophin is greater in the case of the mice injected with butyrate. The augmentation of the utrophin was quantified in Western blot."}, "utrophin [3]": {"system": "utrophin", "assay": "Utrophin expression in myotubes of mdx mice, Western blot", "type": "cell-based, mouse", "conditions": "myotubes of dystrophic mdx mice (line xlt), 5 mM, 48 h", "method": "Myotubes of dystrophic mdx mice (line xlt) are treated with 5 mM of butyrate for 48 h. The augmentation of utrophin is then quantified in Western blot."}}, "data": [{"compound": "arginine butyrate", "values": [{"measurement": "dose dependence of the augmentation of utrophin", "setting": "utrophin [1]; OF1 mice, 100, 200 or 300 mg/kg/day i.p. daily for 6 weeks", "result": "dosage-dependent"}, {"measurement": "utrophin localisation in muscle", "setting": "utrophin [1]; OF1 mice, 100, 200 or 300 mg/kg/day i.p. daily for 6 weeks, vs physiological serum control", "result": "utrophin appears very clearly under the muscular membrane"}, {"measurement": "quantity of utrophin", "setting": "utrophin [1]; healthy muscles and mdx mouse (FIG. 4), summary statement", "result": "significantly augments the quantity of utrophin"}]}, {"compound": "N=C(N)NCCC[C@H](N)C(=O)O", "note": "[L-arginine]", "values": [{"measurement": "utrophin localisation in muscle", "setting": "utrophin [2]; vs physiological serum control", "result": "the utrophin appears under the muscular membrane"}]}, {"compound": "CCCC(=O)O", "note": "[butyrate]", "values": [{"measurement": "augmentation of expression of utrophin (factor, intensity of Western blot bands)", "setting": "utrophin [2]", "result": 2}, {"measurement": "augmentation of expression of utrophin (factor, intensity of Western blot bands)", "setting": "utrophin [3]", "result": 2}]}]}
